Data as given in US9682079B2, “Composition for treatment of pathogens that are resistant to tetracyclines” (BIOVERSYS AG, priority 2013, dated 2017).

How the values were obtained:
TetR/tetO interaction = experiment: DNA/protein (tetO/TetR) interaction assay, FortéBio Octet Red; assay type: binding; settings: % association of TetR to tetO; compound 10 μg/mL & tetracycline 10 ng/mL mix in running buffer; normalized to DMSO control
Description: Biacore Based DNA/Protein (tetO/TetR) Interaction Assay
The FortéBio technology (FortéBio, Inc., Menlo Park, Calif., USA) is a novel label-free methodology for analyzing macromolecular ligand/capture interactions. The Octet system can be used to measure real-time, label-free analysis of biomolecular interactions and provide information on affinity, kinetics and concentration. The instrument is designed to assay up to eight samples in parallel in 2 min from a standard 96-well micro-plate. The detection technology utilized in the Octet is based on Biolayer Interferometry (BLI). BLI relies on the reflective property of white light and is implemented in the Octet via the use of fiber optic-based biosensors. The biosensors are coated with molecules chosen to capture the targeted ligands. The measurements were performed on an Octet Red system equipped with streptavidin biosensor tips (SA). Tips were purchased from FortéBio.
Interaction Studies: FortéBio's Octet Red
Interaction analyses were conducted at 30° C. in running buffer (HBS-P+5 mmol/L MgSO4) unless stated otherwise. (HBS-P buffer: 10 mM Hepes (pH 7.4), 150 mM NaCl, 0.005% (v/v) polysorbate P20, and 5 mmol/L MgSO4; a 10×HBS-P buffer from GE Healthcare was used). Temperature control on the Octet was accomplished by holding the instrument at room temperature so that it could be heated to 30° C. Sensor tips were pre-wet for 10 min in running buffer immediately prior to use, and the micro plates used in the Octet were filled with 200 μl of sample or buffer per well and agitated at 600 rpm. For the experiments commercially available precoated streptavidine tips were used (SA).
Biotinylated oligos were loaded onto the FortéBio SA fibers in HBS-P buffer pH 7.4. Protein binding experiments were run with HBS-P buffer unless stated otherwise. After each run the tip was regenerated (maximum 4 times) with running buffer containing 0.3% w/v sodium dodecylsulfate (SDS).
(§1) Correlation of the synergistic effect of compounds of the invention with tetracyclines on bacterial growth inhibition (% growth relative to DMSO; 4 μg/ml tetracyclines and 10 μg/ml compounds of the invention) and TetR/tetO interaction (% association of TetR to tetO relative to DMSO). Bacterial growth was analysed 16 to 20 hours after inoculation according to CLSI guidelines. OD610 was determined with a Tecan Infinite F200 and normalized to the DMSO control. The interaction of TRIC compounds with the TetR protein and the effect on TetR-tetO operator DNA binding was analyzed with a FortéBio's Octet red and normalized to the DMSO control.

[1] = tested on: Antibiotic-resistant staphylococcal, enterococcal, enterobacterial or acinetobacter isolates; experiment: Broth micro-dilution assay in clinical patient isolates, compound in combination with tetracyclines; assay type: cell-based; settings: 4 μg/ml tetracyclines and 10 μg/ml compound; OD610 16 to 20 hours after inoculation, normalized to DMSO control (100%)
Excerpt: Microdilution Assay in Clinical Patient Isolates
Broth Micro-Dilution Assay in Cation-Adjusted Mueller-Hinton (CA-MHB)
The assay protocol is adapted from the Clinical and Laboratory Standards Institute (CLSI) standardized method for broth microdilution. This methodology was used to evaluate the susceptibility of pathogenic clinical isolates towards different antibiotics in combination with a compound of the invention.
Antibiotic-resistant staphylococcal, enterococcal, enterobacterial or acinetobacter isolates were scraped from fresh Orientation Agar plates, suspended in saline solution with the turbidity adjusted to OD610 of 0.1 (corresponds to 0.5 McFarland scale). Subsequently, the cultures were diluted 160× in CA-MHB medium and a volume of 80 μl was dispensed into each well of a 96 well microtiter plate. Plates were covered and incubated for 16 to 20 hours at 35° C. without shaking. Plates were then visually analyzed, scanned and subsequently the OD610 was determined. Average and standard deviations were calculated from at least two wells with the same condition. Values were normalized to the DMSO control (which is 100%).
as §1

Row | Structure (SMILES) | Association (% rel. to DMSO) (TetR/tetO interaction) [%] | Growth (% rel. to DMSO) [1] [%]
1 | O=C(NCc1cc(O)ccc1O)c1ccccc1 [Example 1, N-[(2,5-dihydroxyphenyl)methyl]benzamide] | 15.84 | 55.20
2 | O=C(NCc1cc(O)ccc1O)c1cc(F)cc(F)c1 [Example 2] | 51.60 | 34.40
3 | O=C(NCCc1cc(O)ccc1O)c1ccccc1 [Example 3] | 63.20 | 41.10
4 | O=C(c1cc(O)ccc1O)N1CCN(c2ccccc2)CC1 [Example 4] |  | 63.87
5 | O=C(NCc1cc(O)ccc1O)c1ccccc1F [Example 5] | 30.49 | 56.57
6 | O=C(NCc1cc(O)ccc1O)c1cccc(F)c1 [Example 6] | 25.61 | 60.43
7 | O=C(NCc1cc(O)ccc1O)c1cc(F)ccc1O [Example 7] | 26.83 | 56.50
8 | O=C(NCc1cc(O)ccc1O)c1cc(F)ccc1F [Example 8] | 42.57 | 69.68
9 | O=C(NCc1cc(O)ccc1O)c1ccc(C(F)(F)F)cc1 [Example 9] | 16.22 | 25.91
10 | O=C(NCc1cc(O)ccc1O)c1cc(C(F)(F)F)ccc1C(F)(F)F [Example 10] | 25.68 | 47.14
11 | O=C(NCc1cc(O)ccc1O)c1cc(C(F)(F)F)cc(C(F)(F)F)c1 [Example 11] | 19.59 | 26.14
12 | CCCCC(=O)NCc1ccc(-c2ccccc2)cc1O [Example 12, N-[(2-hydroxy-4-phenyl-phenyl)-methyl]pentanamide] | 1.60 | 5.76
13 | CCC(=O)NCc1cc(OC)c(-c2ccccc2)cc1OC [Example 13] |  | 4.74
14 | CCC(=O)Nc1ccccc1Oc1ccc(Cl)cc1 [Example 14, N-[2-(4-chlorophenoxyl)phenyl]propanamide] | 10.26 | 18.21
15 | CCCCC(=O)Nc1ccccc1Oc1ccc(Cl)cc1 [Example 15] | 85.19 | 4.88
16 | O=C(CCc1ccccc1)Nc1ccccc1Oc1ccc(Cl)cc1 [Example 16] | 2.52 | 6.15
17 | CC(C)C(=O)NCc1cccc(-c2ccccc2)c1O [Example 17] | 70.49 | 8.11
18 | COc1ccc(OC)c2c1CCC(C(=O)NCC(C)C)C2 (stereo not shown) [Example 18] | 13.64 | 103.70
19 | CC(C)CNC(=O)C1CCc2c(O)ccc(O)c2C1 (stereo not shown) [Example 19] | 54.02 | 11.50

Row | Structure (SMILES) | Association (% rel. to DMSO) (TetR/tetO interaction) [%] | Growth (% rel. to DMSO) [1] [%]
20 | COc1ccc(OC)c2c1CCCC2C(=O)NCC(C)C (stereo not shown) [Example 20, N-isobutyl-5,8-dimethoxy-tetralin-1-carboxamide] | 97.40 | 63.75
21 | CC(C)CNC(=O)C1CCc2c(c(O)c3ccccc3c2O)C1 (stereo not shown) [Example 21] |  | 25.77
22 | CC(C)CNC(=O)C1CCc2c(O)c3c(c(O)c2C1)C(=O)C=CC3=O (stereo not shown) [Example 22] | 108.99 | 61.29
23 | O=C(NCc1cc(F)cc(F)c1)C1CCc2c(O)ccc(O)c2C1 (stereo not shown) [Example 23, N-[(3,5-difluorophenyl)methyl]-5,8-dihydroxy-tetralin-2-carboxamide] | 22.69 | 8.15
24 | O=C(NCc1ccccc1)C1CCc2c(O)ccc(O)c2C1 (stereo not shown) [Example 24] | 54.12 | 48.15
25 | O=C(NCc1cc(C(F)(F)F)cc(C(F)(F)F)c1)C1CCc2c(O)ccc(O)c2C1 (stereo not shown) [Example 25] | 11.76 | 90.15
26 | CN(Cc1ccccc1)C(=O)C1CCc2c(O)ccc(O)c2C1 (stereo not shown) [Example 26] | 43.52 | 55.92
27 | O=C(NCc1ccc(C(F)(F)F)cc1)C1CCc2c(O)ccc(O)c2C1 (stereo not shown) [Example 27] | 23.15 | 58.69
28 | O=C(Nc1nnc(-c2ccc(O)cc2)s1)C1CCc2c(O)ccc(O)c2C1 (stereo not shown) [Example 28] | 36.62 | 46.79
29 | CC(C)(C)c1ccc(CNC(=O)C2CCc3c(O)ccc(O)c3C2)cc1 (stereo not shown) [Example 29] |  | 23.58
30 | O=C(NCc1ccc(-c2ccccc2)cc1)C1CCc2c(O)ccc(O)c2C1 (stereo not shown) [Example 30] | 25.35 | 15.00
31 | O=C(NCc1cc(F)ccc1O)C1CCc2c(O)ccc(O)c2C1 (stereo not shown) [Example 31] | 20.42 | 68.68
32 | O=C(Nc1ccccc1)C1CCc2c(O)ccc(O)c2C1 (stereo not shown) [Example 32] | 25.35 | 58.27
33 | O=C(NCCCc1ccccc1)C1CCc2c(O)ccc(O)c2C1 (stereo not shown) [Example 33] | 19.05 | 16.62
34 | O=C(NCC1CCCCC1)C1CCc2c(O)ccc(O)c2C1 (stereo not shown) [Example 34] | 21.09 | 13.58
35 | O=C(NCc1cc(F)ccc1F)C1CCc2c(O)ccc(O)c2C1 (stereo not shown) [Example 35] | 30.61 | 25.80
36 | O=C(NCc1ccc(F)cc1F)C1CCc2c(O)ccc(O)c2C1 (stereo not shown) [Example 36] | 27.89 | 33.52
37 | O=C(Nc1ccccc1Oc1ccc(Cl)cc1)C1CCc2c(O)ccc(O)c2C1 (stereo not shown) [Example 37] | 14.18 | 10.42
